In US9273040B2 (Merck Sharp & Dohme Corp., priority 2011, dated 2016):
Read-outs that look alike come from different tables or passages of the source.

Legend:
[1] = target: T1, human Nav1.7 channels stably expressed in HEK 293 cells (Homo sapiens, UniProt Q15858); assay: PatchXpress 7000 automated patch-clamp, sodium current; type: cell-based; conditions: 22° C.
T1 construct: expressed in transfected cells
Excerpt: (§1) To measure state and use-dependent sodium channel inhibition, test compounds were further characterized in an automated PatchXpress® assay (Molecular Devices). Two voltage-clamp protocols were used. 1) Use-dependent protocol: Cells were held at a membrane potential 20 mV negative to the potential at which ˜50% of the channels are inactivated (V0.5 inact). A train of 30 ms depolarizations to −20 mV was applied to the cells expressing Nav1.7 at a frequency of 10 Hz. […] Data was collected in the absence and presence of drug, and after drug washout. 2) A double-pulse protocol was used to measure inactivated state block. Cells were held at a potential 20 mV negative to V0.5 inact. A 8000 ms pre-pulse 7 mV positive to V0.5 inact was given followed by a hyperpolarizing 2 ms pulse to −120 mV and a 20 ms test pulse to −20 mV. Protocol was applied to cells in the absence, presence of compound and after washout. The temperature of PatchXpress instruments was maintained at 22° C. The following recording solutions were used. Internal solution (mM): 30 CsCl, 5 HEPES, 10 EGTA, 120 CsF, 5 NaF, 2MgCl2, pH=7.3 with CsOH, 324 mosmo. External solution (mM): 120 NMDG, 40 NaCl, 1 KCl, 0.5 MgCl2, 5 HEPES, 2.7 CaCl2, pH=7.5 with NMDG-OH.
(§2) For all electrophysiology experiments, offline analysis was used to correct for current rundown and to determine percent inhibition as a function of drug concentration. IC50 values were determined by fitting to the Hill equation.

[2] = target: T2, human Nav1.5 channels stably expressed in HEK 293 cells (Homo sapiens, UniProt Q14524); assay: as above; type: cell-based; conditions: selectivity over Nav1.5
T2 construct: expressed in transfected cells
T2 sequence (Q14524 whole entry): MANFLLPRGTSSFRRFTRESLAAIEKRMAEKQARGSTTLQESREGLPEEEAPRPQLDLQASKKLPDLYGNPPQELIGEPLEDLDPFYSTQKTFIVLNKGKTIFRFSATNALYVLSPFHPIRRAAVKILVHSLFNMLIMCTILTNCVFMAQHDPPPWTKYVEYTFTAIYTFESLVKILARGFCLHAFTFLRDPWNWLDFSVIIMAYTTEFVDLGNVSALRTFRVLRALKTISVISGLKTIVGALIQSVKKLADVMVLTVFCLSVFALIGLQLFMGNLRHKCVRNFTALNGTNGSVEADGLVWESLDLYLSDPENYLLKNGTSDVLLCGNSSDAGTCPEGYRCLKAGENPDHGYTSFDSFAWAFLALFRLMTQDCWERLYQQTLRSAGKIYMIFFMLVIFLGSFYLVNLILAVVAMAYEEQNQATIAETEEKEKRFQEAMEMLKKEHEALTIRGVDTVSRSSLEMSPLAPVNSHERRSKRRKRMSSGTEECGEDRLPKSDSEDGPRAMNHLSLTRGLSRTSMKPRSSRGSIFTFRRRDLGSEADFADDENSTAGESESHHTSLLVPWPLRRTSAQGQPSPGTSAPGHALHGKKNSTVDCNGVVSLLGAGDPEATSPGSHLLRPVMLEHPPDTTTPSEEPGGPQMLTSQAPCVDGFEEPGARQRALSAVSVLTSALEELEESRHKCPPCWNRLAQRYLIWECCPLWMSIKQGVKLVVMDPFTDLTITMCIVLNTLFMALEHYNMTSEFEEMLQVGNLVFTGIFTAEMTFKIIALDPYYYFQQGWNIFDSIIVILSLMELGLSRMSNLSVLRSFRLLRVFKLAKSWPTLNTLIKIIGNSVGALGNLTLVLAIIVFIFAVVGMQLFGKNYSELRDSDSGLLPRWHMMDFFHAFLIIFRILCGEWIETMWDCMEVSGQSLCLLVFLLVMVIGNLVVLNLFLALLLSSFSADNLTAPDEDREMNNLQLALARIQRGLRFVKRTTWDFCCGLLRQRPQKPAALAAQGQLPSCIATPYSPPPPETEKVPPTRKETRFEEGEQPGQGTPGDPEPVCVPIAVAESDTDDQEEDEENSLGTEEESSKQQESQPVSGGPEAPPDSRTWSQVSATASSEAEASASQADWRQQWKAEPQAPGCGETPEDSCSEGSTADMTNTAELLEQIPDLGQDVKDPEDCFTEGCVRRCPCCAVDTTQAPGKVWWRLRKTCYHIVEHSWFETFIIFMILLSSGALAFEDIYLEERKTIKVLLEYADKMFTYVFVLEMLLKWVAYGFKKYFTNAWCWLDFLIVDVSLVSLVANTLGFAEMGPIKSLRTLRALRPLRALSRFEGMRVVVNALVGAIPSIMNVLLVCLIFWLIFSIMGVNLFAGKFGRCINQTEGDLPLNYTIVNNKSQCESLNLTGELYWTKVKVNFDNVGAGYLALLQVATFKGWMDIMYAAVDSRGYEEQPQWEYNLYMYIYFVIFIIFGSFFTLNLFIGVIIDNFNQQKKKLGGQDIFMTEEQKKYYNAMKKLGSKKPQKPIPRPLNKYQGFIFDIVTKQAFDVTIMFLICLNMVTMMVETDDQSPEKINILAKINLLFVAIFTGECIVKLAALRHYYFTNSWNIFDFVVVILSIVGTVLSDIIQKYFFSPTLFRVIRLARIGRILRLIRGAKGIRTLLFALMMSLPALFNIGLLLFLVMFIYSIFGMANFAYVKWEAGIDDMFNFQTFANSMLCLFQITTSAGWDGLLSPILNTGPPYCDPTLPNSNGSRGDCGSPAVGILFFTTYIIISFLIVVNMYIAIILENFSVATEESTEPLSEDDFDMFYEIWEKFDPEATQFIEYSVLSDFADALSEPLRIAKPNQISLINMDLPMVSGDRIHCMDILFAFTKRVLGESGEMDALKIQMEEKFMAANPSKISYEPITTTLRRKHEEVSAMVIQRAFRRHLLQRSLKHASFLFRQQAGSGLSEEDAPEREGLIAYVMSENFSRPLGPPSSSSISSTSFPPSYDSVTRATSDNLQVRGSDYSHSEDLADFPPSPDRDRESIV
Excerpt: as §1, §2

[3] = read-out: potency for the Nav 1.7 sodium ion channel (as measured by PatchXpress)

T1 sequence (Q15858 whole entry): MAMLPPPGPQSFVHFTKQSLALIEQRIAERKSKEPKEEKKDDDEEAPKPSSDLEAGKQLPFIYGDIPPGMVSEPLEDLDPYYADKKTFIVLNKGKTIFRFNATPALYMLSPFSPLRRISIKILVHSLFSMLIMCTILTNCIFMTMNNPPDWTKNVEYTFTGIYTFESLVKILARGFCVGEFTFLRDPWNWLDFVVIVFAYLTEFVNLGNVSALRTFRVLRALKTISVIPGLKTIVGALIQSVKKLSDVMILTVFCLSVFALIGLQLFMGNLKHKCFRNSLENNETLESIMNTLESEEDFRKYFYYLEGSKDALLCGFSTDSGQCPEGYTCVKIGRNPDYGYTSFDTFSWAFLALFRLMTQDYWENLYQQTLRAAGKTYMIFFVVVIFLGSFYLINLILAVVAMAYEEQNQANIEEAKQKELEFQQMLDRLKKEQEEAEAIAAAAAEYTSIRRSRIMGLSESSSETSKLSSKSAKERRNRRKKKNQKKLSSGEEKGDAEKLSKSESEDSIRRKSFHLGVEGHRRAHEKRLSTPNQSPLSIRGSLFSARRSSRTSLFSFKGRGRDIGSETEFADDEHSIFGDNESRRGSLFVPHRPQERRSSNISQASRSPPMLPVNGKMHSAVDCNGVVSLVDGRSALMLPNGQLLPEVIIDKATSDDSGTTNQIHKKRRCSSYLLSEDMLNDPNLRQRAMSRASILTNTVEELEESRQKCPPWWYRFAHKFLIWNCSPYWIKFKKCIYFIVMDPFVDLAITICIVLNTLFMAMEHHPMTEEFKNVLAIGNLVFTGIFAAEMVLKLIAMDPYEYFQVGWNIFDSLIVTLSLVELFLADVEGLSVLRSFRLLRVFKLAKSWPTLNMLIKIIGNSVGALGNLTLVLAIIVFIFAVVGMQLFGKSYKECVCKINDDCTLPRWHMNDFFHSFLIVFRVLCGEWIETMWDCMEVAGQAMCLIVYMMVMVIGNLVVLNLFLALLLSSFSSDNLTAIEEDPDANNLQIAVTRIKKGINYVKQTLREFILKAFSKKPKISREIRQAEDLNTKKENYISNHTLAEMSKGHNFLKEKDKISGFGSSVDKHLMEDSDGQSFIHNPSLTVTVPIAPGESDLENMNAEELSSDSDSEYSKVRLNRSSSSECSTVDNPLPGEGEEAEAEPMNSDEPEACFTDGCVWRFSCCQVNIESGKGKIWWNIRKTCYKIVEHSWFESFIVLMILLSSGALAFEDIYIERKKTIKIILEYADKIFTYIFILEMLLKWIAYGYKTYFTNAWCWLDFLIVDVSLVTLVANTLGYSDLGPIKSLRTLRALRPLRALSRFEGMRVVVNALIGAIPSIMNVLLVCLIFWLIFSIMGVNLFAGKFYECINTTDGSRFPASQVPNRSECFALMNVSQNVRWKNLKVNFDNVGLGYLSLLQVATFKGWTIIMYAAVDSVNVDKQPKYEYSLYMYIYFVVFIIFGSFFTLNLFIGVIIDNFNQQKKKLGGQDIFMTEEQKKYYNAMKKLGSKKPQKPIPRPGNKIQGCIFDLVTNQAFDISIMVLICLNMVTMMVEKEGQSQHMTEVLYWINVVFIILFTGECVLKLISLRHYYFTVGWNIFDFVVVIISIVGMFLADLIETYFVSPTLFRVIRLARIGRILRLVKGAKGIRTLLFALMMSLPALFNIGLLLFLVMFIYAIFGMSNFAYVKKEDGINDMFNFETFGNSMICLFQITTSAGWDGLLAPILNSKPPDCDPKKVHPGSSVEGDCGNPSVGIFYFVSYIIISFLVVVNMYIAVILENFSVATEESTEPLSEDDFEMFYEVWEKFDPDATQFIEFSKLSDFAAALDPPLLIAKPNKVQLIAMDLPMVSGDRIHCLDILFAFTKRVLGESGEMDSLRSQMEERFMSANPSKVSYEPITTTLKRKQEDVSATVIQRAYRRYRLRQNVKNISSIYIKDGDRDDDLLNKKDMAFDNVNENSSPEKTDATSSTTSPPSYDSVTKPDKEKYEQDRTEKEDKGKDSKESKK

Structure (SMILES) | IC50 [1, 3] [nM] | ratio of Nav 1.5:Nav 1.7 potency, determined by PatchXpress measurement [2] | IC50 ([1]; potency for the Nav 1.7 sodium ion channel (as measured by PatchXpress)) [nM]
CC(N)C#Cc1ccccc1[C@@H](C)n1c(=O)oc2cc(S(=O)(=O)Nc3ncns3)c(F)cc21 (stereo partly drawn) [Compound 17-19, 3-{(1R)-1-[2-(3-aminobut-1-yn-1-yl)phenyl]ethyl}-5-fluoro-2-oxo-N-1,2,4-thiadiazol-5-yl-2,3-dihydro-1,3-benzoxazole-6-sulfonamide] | 22 | 1390 | –
C[C@H](c1ccccc1C1=CCNCC1)n1c(=O)oc2cc(S(=O)(=O)Nc3ncns3)c(F)cc21 [Compound 16-4, (R)-5-Fluoro-2-oxo-3-(1-(2-(1,2,3,6-tetrahydropyridin-4-yl)phenyl)ethyl)-N-(1,2,4-thiadiazol-5-yl)-2,3-dihydrobenzo[d]oxazole-6-sulfonamide] | – | 296 | 28
C[C@H](c1ccccc1C1(F)CNC1)n1c(=O)oc2cc(S(=O)(=O)Nc3nccs3)c(F)cc21 [Compound 43-23, 5-fluoro-3-{(1R)-1-[2-(3-fluoroazetidin-3-yl)phenyl]ethyl}-2-oxo-N-1,3-thiazol-2-yl-2,3-dihydro-1,3-benzoxazole-6-sulfonamide] | 4 | 5541 | –
O=c1oc2cc(S(=O)(=O)Nc3nccs3)c(F)cc2n1C1CCCc2c(F)cccc21 (stereo not drawn) [Compound 43-8, 5-fluoro-3-(5-fluoro-1,2,3,4-tetrahydronaphthalen-1-yl)-2-oxo-N-1,3-thiazol-2-yl-2,3-dihydro-1,3-benzoxazole-6-sulfonamide] | 71 | 75 | –
O=c1oc2cc(S(=O)(=O)Nc3ncns3)c(F)cc2n1Cc1cccc2c1CC(NCC(F)(F)F)CC2 (racemic) [Compound 23-7, (+/−)-5-fluoro-2-oxo-N-1,2,4-thiadiazol-5-yl-3-({7-[(2,2,2-trifluoroethyl)amino]-5,6,7,8-tetrahydronaphthalen-1-yl}methyl)-2,3-dihydro-1,3-benzoxazole-6-sulfonamide] | 206 | 146 | –
O=c1oc2cc(S(=O)(=O)Nc3ncns3)c(F)cc2n1Cc1cccc2c1CC(N1CCS(=O)(=O)CC1)CC2 (single isomer, unassigned) [Compound 23-6, (R or S)-3-{[7-(1,1-dioxidothiomorpholin-4-yl)-5,6,7,8-tetrahydronaphthalen-1-yl]methyl}-5-fluoro-2-oxo-N-1,2,4-thiadiazol-5-yl-2,3-dihydro-1,3-benzoxazole-6-sulfonamide] | 206 | 146 | –
C[C@H](c1ccccc1C#CCN1CCS(=O)(=O)CC1)n1c(=O)oc2cc(S(=O)(=O)Nc3ncns3)c(F)cc21 [Compound 17-5, 3-[(1R)-1-{2-[3-(1,1-dioxidothiomorpholin-4-yl)prop-1-yn-1-yl]phenyl}ethyl)-5-fluoro-2-oxo-N-1,2,4-thiadiazol-5-yl-2,3-dihydro-1,3-benzoxazole-6-sulfonamide] | 122 | 246 | –
C[C@H](c1cccc2c1CNCC2)n1c(=O)oc2cc(S(=O)(=O)Nc3ncns3)c(Br)cc21 [Compound 35-5, (R)-5-bromo-2-oxo-3-(1-(1,2,3,4-tetrahydroisoquinolin-8-yl)ethyl)-N-(1,2,4-thiadiazol-5-yl)-2,3-dihydrobenzo[d]oxazole-6-sulfonamide] | 16 | 932 | –
O=c1oc2cc(S(=O)(=O)Nc3ncns3)c(F)cc2n1C1CCOc2ccccc21 (stereo not drawn) [Compound 39-6, 3-(3,4-dihydro-2H-chromen-4-yl)-5-fluoro-2-oxo-N-1,2,4-thiadiazol-5-yl-2,3-dihydro-1,3-benzoxazole-6-sulfonamide] | 221 | 110 | –
C[C@@H](c1ccccc1CCCN)n1c(=O)oc2cc(S(=O)(=O)Nc3ncns3)c(F)cc21 [Compound 33-8] | 168 | 179 | –
C[C@H](c1ccccc1C1(F)CNC1)n1c(=O)oc2cc(S(=O)(=O)Nc3ncns3)c(F)cc21 [Compound 32-6, (R)-5-Fluoro-3-(1-(2-(3-fluoroazetidin-3-yl)phenyl)ethyl)-2-oxo-N-(1,2,4-thiadiazol-5-yl)-2,3-dihydrobenzo[d]oxazole-6-sulfonamide] | 18 | 1333 | –
Cl.O=c1oc2cc(S(=O)(=O)Nc3ncns3)c(F)cc2n1Cc1cccc2c1CNCC2F (stereo not drawn) [Compound 24-9, 5-fluoro-3-((4-fluoro-1,2,3,4-tetrahydroisoquinolin-8-yl)methyl)-2-oxo-N-(1,2,4-thiadiazol-5-yl)-2,3-dihydrobenzo[d]oxazole-6-sulfonamide hydrochloride] | 183 | 704 | –
C[C@H](c1ccccc1C#CC1(N)CCCCC1)n1c(=O)oc2cc(S(=O)(=O)Nc3ncns3)c(F)cc21 [Compound 17-23, 3-[(1R)-1-{2-[(1-aminocyclohexyl)ethynyl]phenyl}ethyl]-5-fluoro-2-oxo-N-1,2,4-thiadiazol-5-yl-2,3-dihydro-1,3-benzoxazole-6-sulfonamide] | 12 | 2477 | –
C[C@@H](c1cccc2ccncc12)n1c(=O)oc2cc(S(=O)(=O)Nc3ncns3)c(F)cc21 [Compound 14-10, 5-fluoro-3-[(1S)-1-isoquinolin-8-ylethyl]-2-oxo-N-1,2,4-thiadiazol-5-yl-2,3-dihydro-1,3-benzoxazole-6-sulfonamide] | 779 | 27 | –
C[C@H](c1ccccc1C1=CCN(S(C)(=O)=O)CC1)n1c(=O)oc2cc(S(=O)(=O)Nc3ncns3)c(Cl)cc21 [Compound 36-1, (R)-5-chloro-3-(1-(2-(1-(methylsulfonyl)-1,2,3,6-tetrahydropyridin-4-yl)phenyl)ethyl)-2-oxo-N-(1,2,4-thiadiazol-5-yl)-2,3-dihydrobenzo[d]oxazole-6-sulfonamide] | 527 | 54 | –
C[C@H](c1cccc2c1CC(N)CC2)n1c(=O)oc2cc(S(=O)(=O)Nc3ncns3)c(F)cc21 (single isomer, unassigned) [Compound 23-25, (R or S)-3-[(1R)-1-(7-amino-5,6,7,8-tetrahydronaphthalen-1-yl)ethyl]-5-fluoro-2-oxo-N-1,2,4-thiadiazol-5-yl-2,3-dihydro-1,3-benzoxazole-6-sulfonamide] | 15 | 203 | –
C[C@H](c1ccccc1CN1CCC(F)C1)n1c(=O)oc2cc(S(=O)(=O)Nc3ncns3)c(F)cc21 (stereo partly drawn) [Compound 18-4, 5-fluoro-3-[(1R)-1-{2-[(3-fluoropyrrolidin-1-yl)methyl]phenyl}ethyl]-2-oxo-N-1,2,4-thiadiazol-5-yl-2,3-dihydro-1,3-benzoxazole-6-sulfonamide] | 132 | 82 | –
O=c1oc2cc(S(=O)(=O)Nc3ncns3)c(F)cc2n1Cc1cccc2c1CC(NCC(F)F)CC2 (racemic) [Compound 23-13, (+/−)-3-({7-[(2,2-difluoroethyl)amino]-5,6,7,8-tetrahydronaphthalen-1-yl}methyl)-5-fluoro-2-oxo-N-1,2,4-thiadiazol-5-yl-2,3-dihydro-1,3-benzoxazole-6-sulfonamide] | 84 | 121 | –
O=c1oc2cc(S(=O)(=O)Nc3ncns3)c(F)cc2n1Cc1cccc2c1CC(N1CCC1)CC2 (racemic) [Compound 23-19, (+/−)-3-[(7-azetidin-1-yl-5,6,7,8-tetrahydronaphthalen-1-yl)methyl]-5-fluoro-2-oxo-N-1,2,4-thiadiazol-5-yl-2,3-dihydro-1,3-benzoxazole-6-sulfonamide] | 32 | 499 | –
C[C@H](c1ccccc1C#CC1CCCCN1)n1c(=O)oc2cc(S(=O)(=O)Nc3ncns3)c(F)cc21 (stereo partly drawn) [Compound 17-22, 5-fluoro-2-oxo-3-{(1R)-1-[2-(piperidin-2-ylethynyl)phenyl]ethyl}-N-1,2,4-thiadiazol-5-yl-2,3-dihydro-1,3-benzoxazole-6-sulfonamide] | 13 | 1456 | –
CC(c1cccc2c1CC(N1CC(F)(F)C1)CC2)n1c(=O)oc2cc(S(=O)(=O)Nc3ncns3)c(F)cc21 (racemic) [Compound 23-12, (+/−)-3-{1-[7-(3,3-difluoroazetidin-1-yl)-5,6,7,8-tetrahydronaphthalen-1-yl]ethyl}-5-fluoro-2-oxo-N-1,2,4-thiadiazol-5-yl-2,3-dihydro-1,3-benzoxazole-6-sulfonamide] | 109 | 46 | –
